Consider 16 compounds from US11339185B2, “Cyclic dinucleotides as anticancer agents” (Bristol-Myers Squibb Company, priority 2018, dated 2022).

Like-named read-outs stand apart in the source and are kept apart here.

Assay [1] has as its target T1, STING AQ: His-TVMV-S-hSTING(155-341)-G230A-R293Q (Homo sapiens, UniProt Q86WV6, G230A/H232R/R293Q).
T1 construct: STING AQ: His-TVMV-S-hSTING(155-341)-G230A-R293Q
The experiment in a line: STING HTRF binding assay (time resolved FRET competition), STING AQ. The following applies: 20 nM His-tagged STING AQ cytoplasmic domain, 40 nM fluorescein-labeled cGAMP analog probe, one hour; read-out: HTRF Binding Assays IC50 (μM) AQ. The method, then:
(§1) A time resolved FRET-based competition binding assay was used to assess test article binding to STING WT and STING AQ. His-tagged STING cytoplasmic domain (WT or AQ) at a concentration of 20 nM was incubated with 2.5 nM Tb-labeled anti-His antibody, test compound, and fluorescein-labeled cGAMP analog probe (BioLog cat. no. C195) at a concentration of 200 nM (STING WT) or 40 nM (STING AQ) in PBS containing 0.005% Tween-20 and 0.1% BSA for one hour. Fluorescence at 495 nm and 520 nm was measured using an EnVision microplate reader to quantify FRET between Tb-labeled anti-His antibody and fluorescein-labeled probe. Background was defined as the signal obtained in the absence of STING protein, and background subtracted FRET ratios were normalized to the maximum signal obtained in the absence of test compound. These values were converted to a percent inhibition. Percent inhibition was determined for test compounds at 11 concentrations. The IC50, defined as the concentration of competing test compound needed to reduce specific binding of the probe by 50%, was calculated using the 4 parameter logistic equation to fit the data

The test system of assay [2] is THP1-Dual cells, IRF pathway (IRF3). The experiment in a line: STING THP1 Reporter Assay, IRF pathway (secreted Lucia luciferase, QUANTI-Luc). In kind it is cell-based. The following applies: 10% human plasma, luciferase readout, 100% activation = 100 μM cGAMP, read-out: THP1 Reporter Assays EC50 (μM) IRF3. An excerpt: (§2) THP1-Dual™ cells were derived from the human THP-1 monocyte cell line by stable integration of two inducible reporter constructs. To this end, THP1-Dual™ cells allow the simultaneous study of the NF-κB pathway, by monitoring the activity of SEAP, and the IRF pathway by assessing the activity of a secreted luciferase (Lucia). Both reporter proteins are readily measurable in the cell culture supernatant when using QUANTI-Blue™, a SEAP detection reagent, and QUANTI-Luc™, a luciferase detection reagent.
(§3) THP1-Dual™ cells induce the activation of NF-κB in response to STING agonists. They also trigger the IRF pathway upon stimulation with STING agonists, such as cGAMP. Here, the THP-1-Dual cells were used to assess STING binders for function on the cellular level.
(§4) Serial dilutions of compounds in DMSO were added to low volume 384 well plates at 100 nl/well using an ECHO acoustic dispenser (Labcyte, model 550) to achieve final starting concentration of 100 μM in cell suspension. THP-1 Dual™ STING reporter cells (Invivogen, Dual cells cat #THPD-nfis) were added to the plates with compounds at 15,000 cells in 10 μL per well in RPMI media (Gibco, cat #11875) containing 10% human plasma in a low volume 384-well black wall clear bottom tissue culture plate (Corning, cat #3542) for SEAP assay and low volume solid white plate (Corning, cat #3826) for luciferase assay. One column of the plate was reserved for treatment with cGAMP at 100 μM for 100% activation calculation and one column for no treatment (DMSO only) for baseline activation. Plates were then incubated in 37 OC incubator at 5% CO2 for 20 hours.
(§5) In the SEAP assay, 5 μl of 2× QuantiBlue (Invivogen, cat #Rep-qb2) is added to 384 well black plates seeded with THP1 cells and incubated at 37° C. for 2 hours. Plates were read on the Envision (Perkin Elmer) at 620 nm wavelength (OD620). In the luciferase assay, 5 μl of Quantiluc (Invivogen, Rep-qlc2) is added to white 384 well plates seeded with THP1 cells and read at 5 minutes on the Envision (Perkin Elmer) using a luminescence protocol (RLU). For both cell lines, 100% activation was determined by value (RLU) of THP-1 Dual STING cells stimulated with 100 μM cGAMP (Invivogen, cat #TLRL-NACGA23-5).
In general terms: In a reporter assay the amount or activity of a reporter protein is the signal.

The target of assay [3] is T2, STING WT: His-TVMV-S-hSTING(155-341)-H232R (Homo sapiens, UniProt Q86WV6, H232R).
T2 construct: STING WT: His-TVMV-S-hSTING(155-341)-H232R
T2 sequence (Q86WV6 with tags, fused parts or gaps H232R): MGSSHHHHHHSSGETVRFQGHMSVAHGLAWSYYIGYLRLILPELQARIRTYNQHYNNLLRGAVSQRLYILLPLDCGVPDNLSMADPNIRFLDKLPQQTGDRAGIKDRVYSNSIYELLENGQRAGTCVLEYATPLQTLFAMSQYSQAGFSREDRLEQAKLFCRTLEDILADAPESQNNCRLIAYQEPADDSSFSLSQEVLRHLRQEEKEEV
Nature of the assay: STING HTRF binding assay (time resolved FRET competition), STING WT. The settings on record: 20 nM His-tagged STING WT cytoplasmic domain, 200 nM fluorescein-labeled cGAMP analog probe, one hour; read-out: HTRF Binding Assays IC50 (μM) WT. As to the method:
as §1
Background: Time-resolved FRET reads energy transfer from a long-lived donor to a nearby acceptor.

Assay [4] concerns THP1-Dual cells, NF-κB pathway. The experiment in a line: STING THP1 Reporter Assay, NF-κB pathway (SEAP, QUANTI-Blue). In kind it is cell-based. The settings on record: 10% human plasma, SEAP readout (OD620), 100% activation = 100 μM cGAMP, read-out: THP1 Reporter Assays EC50 (μM) NFkB.
Excerpt: as §2, §3, §4, §5

T1 sequence (Q86WV6 with tags, fused parts or gaps G230A/H232R/R293Q): as the sequence (Q86WV6 with tags, fused parts or gaps H232R) above, with G99A, R162Q counted along it

As usually defined, the IC50 is the concentration at which inhibition is half-maximal. As usually defined, the EC50 is the concentration that produces a half-maximal response. With `Nc1ncnc2c1ncn2[C@@H]1C[C@@H]2COP(=O)(S)O[C@H]3[C@@H](O)[C@H](n4cnc5c(=O)n6cc[nH]c6nc54)O[C@@H]3COP(=O)(S)OC[C@H]21` (single isomer, unassigned) [Example 5-3], the half-inhibitory concentration (IC50) was 5.73 µM in assay [1] and over 100 µM in assay [3]. For the same compound, the 50% effective concentration (EC50) in assay [2] (20 hours) and in assay [4] (20 hours) was over 100 µM in each case.
In the case of `O=P1(S)OC[C@@H]2[C@@H](COP(=O)(S)O[C@H]3[C@@H](F)[C@H](n4cnc5c4ncn4ccnc54)O[C@@H]3CO1)C[C@H]2n1cnc2c(Cl)ncnc21` (single isomer, unassigned) [Example 18-4], the results for the IC50 in assay [1] and in assay [3] were 2.18 µM and 24.5 µM, respectively. Further, the 50% effective concentration (EC50) in assay [2] (20 hours) and in assay [4] (20 hours) was over 100 µM each time.
For `Nc1ncnc2c1ncn2[C@@H]1O[C@@H]2COP(=O)(S)OC[C@@H]3[C@@H](COP(=O)(S)O[C@H]2[C@H]1F)C[C@H]3n1cnc2c(O)n3ccnc3nc21` (single isomer, unassigned) [Example 1-1], the IC50 stood at 0.01 µM in assay [1] and 0.19 µM in assay [3]. Further, the figures for the 50% effective concentration (EC50) in assay [2] (20 hours) and in assay [4] (20 hours) were 41 µM and 54.6 µM, respectively.
As to `NC(=O)c1cc([C@@H]2C[C@@H]3COP(=O)(S)O[C@H]4[C@@H](F)[C@H](n5cnc6c5ncn5ccnc65)O[C@@H]4COP(=O)(S)OC[C@H]32)ccn1` (stereo partly drawn) [Example 19, 4-[(1R,6S,8R,9S,15R,17R,18R)-18-fluoro-17-{3H-imidazo[2,1-f]purin-3-yl}-3,12-dioxo-3,12-disulfanyl-2,4,11,13,16-pentaoxa-3λ^5,12λ^5-diphosphatricyclo[13.3.0.0^6,9]octa-decan-8-yl]pyridine-2-carboxamide], the IC50 in assay [1] and in assay [3] was 0.01 µM each time. Moreover, the EC50 was 0.97 µM in assay [2] (Homo sapiens, THP1-Dual, 20 h) and 2.38 µM in assay [4] (Homo sapiens, THP1-Dual, 20 h).
`Nc1ncnc2c1ncn2[C@@H]1O[C@@H]2COP(=O)(S)OC[C@@H]3[C@@H](COP(=O)(S)O[C@H]2[C@H]1F)C[C@H]3n1cnc2c(O)n3ccnc3nc21` (single isomer, unassigned) [Example 1-3]: the IC50 in assay [1] was found to be 0.02 µM; in assay [3], 0.84 µM. The EC50 in assay [2] (20 hours) and in assay [4] (20 hours) was over 100 µM in each case.
Regarding `NC(=O)c1cc([C@@H]2C[C@@H]3COP(O)(=S)O[C@H]4[C@@H](F)[C@H](n5cnc6c(N)ncnc65)O[C@@H]4COP(=O)(O)OCC32)ccn1` (single isomer, unassigned) [Example 14], the IC50 in assay [1] is 7.78 µM; in assay [3], over 100 µM. Moreover, the half-maximal effective concentration (EC50) in assay [2] (Homo sapiens, THP1-Dual, 20 h) is over 100 µM; in assay [4] (Homo sapiens, THP1-Dual, 20 h), over 100 µM.
Regarding `Nc1ncnc2c1ncn2[C@@H]1O[C@@H]2COP(=O)(S)OC[C@@H]3[C@@H](COP(=O)(S)O[C@H]2[C@H]1F)C[C@H]3n1cnc2c(O)n3ccnc3nc21` (single isomer, unassigned) [Example 1-4], the half-inhibitory concentration (IC50) was determined as 0.002 µM in assay [1] and 0.01 µM in assay [3]. In addition, the values for the half-maximal effective concentration (EC50) in assay [2] (20 hours) and in assay [4] (20 hours) were 0.39 µM and 1.21 µM, respectively.
Consider `Nc1ncnc2c1ncn2[C@@H]1C[C@@H]2COP(=O)(S)O[C@@H]3[C@H](F)[C@@H](COP(=O)(S)OC[C@H]21)O[C@H]3n1cnc2c(=O)n3cc[nH]c3nc21` (single isomer, unassigned) [Example 6-4], for which the results for the half-inhibitory concentration (IC50) in assay [1] and in assay [3] were 0.63 µM and 19.4 µM, respectively. For the same compound, the EC50 in assay [2] (20 hours) and in assay [4] (20 hours) was over 100 µM each time.
For the compound `Nc1ncnc2c1ncn2[C@@H]1O[C@@H]2COP(=O)(S)OC[C@@H]3[C@@H](COP(=O)(S)O[C@H]2[C@H]1F)C[C@H]3n1cnc2c(O)n3ccnc3nc21` (single isomer, unassigned) [Example 1-2], the results for the concentration for half-maximal inhibition (IC50) in assay [1] and in assay [3] were 0.04 µM and 0.9 µM, respectively. The figures for the half-maximal effective concentration (EC50) in assay [2] (20 hours) and in assay [4] (20 hours) were 31.3 µM and 54 µM, respectively.
With `Nc1ncnc2c1ncn2[C@@H]1C[C@@H]2COP(=O)(S)O[C@H]3[C@@H](O)[C@H](n4cnc5c(=O)n6cc[nH]c6nc54)O[C@@H]3COP(=O)(S)OC[C@H]21` (single isomer, unassigned) [Example 5-1], the IC50 in assay [1] and in assay [3] was over 100 µM in each case. Besides, the concentration for a half-maximal effect (EC50) was over 100 µM in assay [2] (Homo sapiens, THP1-Dual, 20 h) and over 100 µM in assay [4] (Homo sapiens, THP1-Dual, 20 h).
Take `Nc1ncnc2c1ncn2[C@@H]1C[C@@H]2COP(=O)(O)O[C@@H]3[C@H](O)[C@@H](COP(=O)(S)OC[C@H]21)O[C@H]3n1cnc2c(=O)n3ccnc3[nH]c21` (single isomer, unassigned) [Example 4-1]: the 50% inhibitory concentration (IC50) in assay [1] was 0.1 µM; in assay [3], 11.1 µM. Further, the EC50 in assay [2] (Homo sapiens, THP1-Dual, 20 h) is over 100 µM; in assay [4] (Homo sapiens, THP1-Dual, 20 h), over 100 µM.
Consider `O=P1(S)OC[C@@H]2[C@@H](COP(=O)(S)O[C@H]3[C@@H](F)[C@H](n4cnc5c4ncn4ccnc54)O[C@@H]3CO1)C[C@H]2n1cnc2c(Cl)ncnc21` (single isomer, unassigned) [Example 18-1], for which the concentration for half-maximal inhibition (IC50) in assay [1] is 26.4 µM; in assay [3] it was over 100 µM. Also, the EC50 in assay [2] (Homo sapiens, THP1-Dual, 20 h) is over 100 µM; in assay [4] (Homo sapiens, THP1-Dual, 20 h), over 100 µM.
For the compound `Nc1ncnc2c1ncn2[C@@H]1C[C@@H]2COP(=O)(S)O[C@H]3[C@@H](F)[C@H](n4cnc5c4ncn4ccnc54)O[C@@H]3COP(=O)(S)OC[C@H]21` (single isomer, unassigned) [Example 17-3], the concentration for half-maximal inhibition (IC50) in assay [1] came to 0.11 µM; in assay [3], 5.22 µM. Besides, the figures for the concentration for a half-maximal effect (EC50) in assay [2] (20 hours) and in assay [4] (20 hours) were 73.7 µM and 89.6 µM, respectively.
For the compound `NC(=O)c1cc([C@@H]2C[C@@H]3COP(=O)(S)O[C@H]4[C@@H](F)[C@H](n5cnc6c(N)ncnc65)O[C@@H]4COP(=O)(S)OC[C@H]32)ccn1` (single isomer, unassigned) [Example 10], the IC50 was 2.3 µM in assay [1] and 40.9 µM in assay [3]. In addition, the 50% effective concentration (EC50) in assay [2] (20 hours) and in assay [4] (20 hours) was over 100 µM each time.
As for `Nc1ncnc2c1ncn2[C@@H]1O[C@@H]2COP(=O)(S)OC[C@@H]3[C@@H](COP(=O)(S)O[C@H]2[C@H]1F)C[C@H]3n1cnc2c1ncn1ccnc21` (single isomer, unassigned) [Example 3-2], the values for the IC50 in assay [1] and in assay [3] were 0.03 µM and 1.49 µM, respectively. The 50% effective concentration (EC50) in assay [2] (20 hours) turned out to be 26.6 µM; in assay [4] (20 hours) it was 42.6 µM.
On to `NC(=O)c1cc([C@@H]2O[C@@H]3COP(=O)(S)OC[C@@H]4[C@@H](COP(=O)(S)O[C@@H]2[C@@H]3O)C[C@H]4n2cnc3c(N)ncnc32)ccn1` (single isomer, unassigned) [Example 20-3], for which the 50% inhibitory concentration (IC50) in assay [1] and in assay [3] was 0.01 µM throughout. Moreover, the concentration for a half-maximal effect (EC50) was 5.23 µM in assay [2] (20 hours) and 7.64 µM in assay [4] (20 hours).
